From ChEMBL document CHEMBL3301361, “Experimental in vitro DMPK and physicochemical data on a set of publicly disclosed compounds”
Values after ≈ are worked out from the molar mass of the structure shown.

Key:
in vitro [1] = details: SD, HW or BN, rat, plasma
in vitro [2] = details: human
physchem [3] = details: octan-1-ol/water
in vitro [4] = details: human, plasma
physchem [5] = details: pH 7.4 buffer

Compound	fraction unbound at 5 h (in vitro [1])	fraction unbound at 5 h (in vitro [4]; PPB)	also measured
CCOc1ccc2oc(C(=O)NC(CCSC)c3nc4ccccc4[nH]3)c(C)c2c1 (stereo unspecified)	0.009	–	–
N#Cc1ccc(F)c(-c2cc(C(F)(F)F)ccc2OCC(=O)O)c1	–	0.0293	microsomal CLint (in vitro [2]; microsomes): < 3 µL/min/mg; logD (physchem [3]; pH 7.4, LogD7.4): -0.16
Cc1cc([C@H](O)[C@](C)(OCc2ccc(-c3ccccc3)cc2)C(=O)NO)no1	–	0.0328	microsomal CLint (in vitro [2]; liver microsomes): 15.8 µL/min/mg; logD (physchem [3]; pH 7.4, LogD7.4): 2.88
CC[C@H](CO)Nc1nc(SCc2ccccc2)nc2nc(N)sc12	–	0.013	microsomal CLint (in vitro [2]; liver microsomes): 8.71 µL/min/mg; logD (physchem [3]; pH 7.4, LogD7.4): 3.27
C=CCN(C)CCCCCCOc1ccc(C(=O)c2ccc(Br)cc2)c(F)c1	0.0006	–	–
Cc1csc2c(N3CCN(C(=O)c4ccc(C(C)(C)C)cc4)CC3)ncnc12	0.0043	–	–
COc1nc(C)nc(Cl)c1N=C1NCCN1 [MOXONIDINE]	0.886	–	–
COc1ccc(-c2nc(-c3ccccn3)no2)cc1	0.0544	–	–
COc1ccccc1C(C#N)NC(=O)[C@@H]1CCCC[C@H]1C(=O)N1CCN(Cc2ccc(F)cc2)CC1 (stereo partly specified)	–	0.051	microsomal CLint (in vitro [2]; liver microsomes): 127 µL/min/mg; logD (physchem [3]; pH 7.4, LogD7.4): 3.57
CC(C)(C)OC(=O)NC[C@H]1CC[C@H](CNC(=O)c2cc(-c3cccc(CN)c3)nc3ccccc23)CC1	0.0171	–	–
Cc1ccccc1Nc1nc(N)nc(C)c1Br	0.0752	–	–
Nc1nc2c(c(N3CC[C@@H](N)C3)n1)CCCc1ccccc1-2	0.437	–	–
COc1cc(C(C)C)c(Oc2cnc(N)nc2N)cc1I	0.0383	–	–
COc1ccc(NC(=O)c2ccnc3ccccc23)c(C(=O)NCC2CCC2)n1	0.0009	–	–
Cc1cc(-n2cnc3ccc(N[C@@H](C)c4ncc(F)cn4)nc32)n[nH]1	0.483	–	–
Cc1ncc(-c2cccc3c2C[C@H](NC(=O)c2ccc(OCC(F)(F)F)nc2)CO3)cn1	0.0768	–	–
O=S(=O)(Nc1ncns1)c1cc(F)c(Oc2cc(F)c(Cl)cc2-c2cn[nH]c2)cc1F	0.002	–	–
COc1cccc(S(=O)(=O)c2c(C)n(CC(=O)O)c3ccc(C)cc23)c1	–	0.0063	microsomal CLint (in vitro [2]; liver microsomes): 3 µL/min/mg; logD (physchem [3]; pH 7.4, LogD7.4): -0.42
O=C1Nc2nc(-c3c(O)cccc3OCC3CC3)cc([C@@H]3CCCNC3)c2CO1	0.124	–	–
Cc1cccc2cc(CN(Cc3ccco3)C(=O)Nc3cccc(C#N)c3)c(Cl)nc12	0.0009	–	–
COc1ccccc1OCC(O)CN1CCN(CC(=O)Nc2c(C)cccc2C)CC1 (stereo unspecified) [RANOLAZINE]	0.465	–	–
O=[N+]([O-])c1c(Nc2ccc(-n3cncn3)cc2)ncnc1N1CCC(Sc2ccccn2)CC1	0.0029	–	–
c1nc(Cc2ccsc2)c[nH]1	0.371	–	–
CC(C)(C)OC(=O)NC[C@H]1CC[C@H](CNC(=O)c2cc(-c3ccncc3)nc3ccccc23)CC1	0.02	–	–
CC(=O)N1CCN(c2nc3c(c(N(C)Cc4cc5ccccc5cn4)n2)CN(C(C)C)C3=O)CC1	0.339	–	–
CN(C)CCn1cc(-c2cc(C(=O)NC[C@H]3CC[C@H](CNC(=O)OC(C)(C)C)CC3)c3ccccc3n2)cn1	0.0647	–	–

Compound	fraction unbound at 5 h (in vitro [1])	fraction unbound at 5 h (in vitro [4]; PPB)	also measured
CN(Cc1ccc(-c2ccccc2S(N)(=O)=O)cc1)C(=O)[C@@H]1CCC[C@H]1C(=O)NCc1ccc(OC(F)(F)F)cc1	0.003	–	–
O=C(COc1cccc(Cl)c1)NC1CN(Cc2ccn(-c3ccc(C(F)(F)F)cc3)c2)C1	0.0043	–	–
O=S(=O)(Nc1ncns1)c1cc(F)c(Oc2ccc(Cl)cc2-c2cn[nH]c2)cc1F	0.001	–	–
CN1CCC[C@@H]1Cc1c[nH]c2ccc(Nc3ncccc3[N+](=O)[O-])cc12	0.387	–	–
Cc1ccc(OCC(O)C(C)NC(C)C)c2c1CCC2 (stereo unspecified) [ZENIDOLOL]	0.216	–	–
C[S+]([O-])Cc1ccc(C(=O)Nc2nccnc2C(=O)NCC2CCC2)c2ccccc12 (stereo unspecified)	0.0988	–	–
CCCC(=O)Nc1ccc(Cl)c(-c2nc3ncccc3o2)c1	0.0358	–	–
CN(C)CCC1CCN(c2cc(C(=O)NC[C@H]3CC[C@H](COC(=O)NC(C)(C)C)CC3)c3ccccc3n2)CC1	0.0328	–	–
CC(=O)N1CCN(c2nc(NCC(C)c3ccc(Cl)cc3)c3c(n2)C(=O)N(C(C)C)C3)CC1 (stereo unspecified)	0.142	–	–
Fc1ccc(-c2cc(C(F)(F)F)nc(-n3cc(Cl)cn3)n2)cc1	0.0048	–	–
CC(C)C(NC(=O)c1cc(Cl)ccc1C(F)(F)F)C(=O)c1ccc([N+](=O)[O-])cc1 (stereo unspecified)	0.024	–	–
CC(C)(C)OC(=O)NC[C@H]1CC[C@H](CNC(=O)c2cc(-c3ccc(CN)cc3)nc3ccccc23)CC1	0.0139	–	–
O=[N+]([O-])c1ccc(-c2nc(-c3ccccc3)c(-c3ccccc3)[nH]2)cc1	0.0006	–	–
CC(C(=O)O[C@@H]1CC[N+](C)(C)C1)(c1ccccc1)C1CCCC1 (stereo partly specified)	0.299	–	–
O=c1[nH]c2ccccc2n1C1CCN(CCCC(c2ccc(F)cc2)c2ccc(F)cc2)CC1 [PIMOZIDE]	0.003	–	–
N#CN=C(N)c1sc(Nc2ccccc2)nc1N	–	0.103	microsomal CLint (in vitro [2]; liver microsomes): < 3 µL/min/mg; logD (physchem [3]; pH 7.4, LogD7.4): 2.91
C[C@@H](Oc1ccccc1-c1cccc([N+](=O)[O-])c1)C1=NCCN1	0.403	–	–
CN1CCC(N2CCN(C(=O)[C@H](NC(=O)c3ccc4cc[nH]c4c3)c3ccccc3)CC2)CC1 [LY-517717]	0.54	–	–
COc1cc(F)c(C(C)C)cc1-c1ccc(C(F)(F)F)cc1CN1C(=O)O[C@H](c2cc(C(F)(F)F)cc(C(F)(F)F)c2)[C@@H]1C [ANACETRAPIB]	0.0328	–	–
CCNC(=O)Nc1sc2ccccc2c1C(=O)N1CCC(N2CCCC3(CCN(CC)C3=O)C2)CC1 (stereo unspecified)	0.17	–	–
CC(C)(C)OC(=O)NC[C@H]1CC[C@H](CNC(=O)c2ccnc(-c3ccccc3)c2)CC1	0.0095	–	–
Cc1ccc2c(c1)c(-c1ccnc3c(F)cccc13)c(C)n2CC(=O)O	–	0.009	microsomal CLint (in vitro [2]; liver microsomes): < 3 µL/min/mg; logD (physchem [3]; pH 7.4, LogD7.4): 0.53
CC(C)NC(=O)c1ccc2c(Nc3ccc(Cl)cc3)nc(N3CCOCC3)nc2c1	–	0.0051	microsomal CLint (in vitro [2]; liver microsomes): < 3 µL/min/mg; logD (physchem [3]; pH 7.4, LogD7.4): 2.78
COc1ccc(-c2ccc3nc(N)sc3c2)cn1	–	0.0383	microsomal CLint (in vitro [2]; liver microsomes): 7.76 µL/min/mg; logD (physchem [3]; pH 7.4, LogD7.4): 3.2
C[C@H](Nc1nc(Nc2cc(C3CC3)[nH]n2)c(F)cc1C#N)c1ccc(F)cc1	0.002	–	–
CNCCC(Oc1ccccc1OC)c1ccccc1 (stereo unspecified) [NISOXETINE]	–	0.483	microsomal CLint (in vitro [2]; liver microsomes): < 3 µL/min/mg; logD (physchem [3]; pH 7.4, LogD7.4): 0.22

Compound	fraction unbound at 5 h (in vitro [1])	fraction unbound at 5 h (in vitro [4]; PPB)	also measured
O=C(Nc1ccccc1)Nc1nc(-c2ccccc2)cs1	0.0005	–	–
c1ccc(-c2[nH]nc3ccccc23)cc1	–	0.0307	microsomal CLint (in vitro [2]; microsomes): < 3 µL/min/mg; logD (physchem [3]; pH 7.4, LogD7.4): 3.79
Cc1ccc(-c2nnc(Nc3ccc(C(=O)N(C)C)cc3)c3ccccc23)cc1S(=O)(=O)N(C)C	0.0209	–	–
Cc1ccc(S(=O)(=O)N(C)c2ccc3sc(C)nc3c2)cc1	0.0067	–	–
CS(=O)(=O)c1ccc(-c2nnc(/C=C/c3nnc(-c4ccc(C#N)cc4)o3)n2-c2ccccc2Cl)nc1	–	0.0633	microsomal CLint (in vitro [2]; liver microsomes): < 3 µL/min/mg; logD (physchem [3]; pH 7.4, LogD7.4): 2.66
O=C(NCc1ccccc1Cl)c1cccnc1Oc1ccccc1	–	0.134	microsomal CLint (in vitro [2]; liver microsomes): 36 µL/min/mg; logD (physchem [3]; pH 7.4, LogD7.4): 3.68
N=C(N)c1cc2c(-c3ccccc3)cccc2s1	–	0.101	microsomal CLint (in vitro [2]; liver microsomes): 5 µL/min/mg; logD (physchem [3]; pH 7.4, LogD7.4): 1.27
O=C(CC12CC3CC(CC(C3)C1)C2)Nc1cccc2c(=O)n(C[C@H]3CCCN3)ccc12	0.151	–	–
CC(=O)N1CCN(c2nc(NCc3ccc(OC(F)(F)F)cc3)c3c(n2)C(=O)N(C(C)C)C3)CC1	0.151	–	–
O=C(NCc1ccc(OC(F)(F)F)cc1)C1c2ccccc2C(=O)N1CCc1ncccn1 (stereo unspecified)	0.129	–	–
Cc1c(S(=O)(=O)c2ccc(Cl)cc2)c2cc(F)ccc2n1CC(=O)O	–	0.0043	microsomal CLint (in vitro [2]; liver microsomes): < 3 µL/min/mg; logD (physchem [3]; pH 7.4, LogD7.4): -0.16
CC(=O)N[C@@H](Cc1ccccc1)C(=O)N[C@H]1CCCNC(=O)[C@H](CCCNC(=N)N)NC(=O)[C@H](Cc2c[nH]c3ccccc23)NC(=O)[C@@H](CC2CCCCC2)NC(=O)[C@@H]2CCCN2C1=O	0.163	–	–
COc1ccc2c(c1)c(-c1ccnc3cc(Cl)ccc13)c(C)n2CC(=O)O	–	0.0031	microsomal CLint (in vitro [2]; liver microsomes): 4 µL/min/mg; logD (physchem [3]; pH 7.4, LogD7.4): 1.16
COc1ccc(OC)c(CNC(=O)c2cccnc2Oc2ccccc2)c1	–	0.002	microsomal CLint (in vitro [2]; liver microsomes): 43.5 µL/min/mg; logD (physchem [3]; pH 7.4, LogD7.4): 3.52
C[C@H](CO)Nc1nc(SCc2cccc(F)c2F)nc2nc(NC3CC3)sc12	–	0.0122	microsomal CLint (in vitro [2]; liver microsomes): 66 µL/min/mg; logD (physchem [3]; pH 7.4, LogD7.4): 4.37
OCC(CO)Nc1nc(SCc2cccc(F)c2F)nc2nc(NC3CC3)sc12	–	0.051	microsomal CLint (in vitro [2]; liver microsomes): 46 µL/min/mg; logD (physchem [3]; pH 7.4, LogD7.4): 3.11
O=C(NCC12CC3CC(CC(C3)C1)C2)c1cc(N2CCNCC2)ccc1Cl	–	–	microsomal CLint (in vitro [2]; microsomes): 11 µL/min/mg; solubility thermodynamic (physchem [5]): 224 µM (≈ 86.9 µg/mL); logD (physchem [3]; pH 7.4): 1.77; fraction unbound at 5 h (in vitro [4]): 0.0268
N#CC1=C2C(=NC1=O)c1cccc3c(N4CCSCC4)ccc2c13	–	0.0139	microsomal CLint (in vitro [2]; liver microsomes): 115 µL/min/mg; logD (physchem [3]; pH 7.4, LogD7.4): 3.22
O=C(NC1CC1)c1cc(-c2cccs2)on1	–	0.0768	microsomal CLint (in vitro [2]; liver microsomes): 38.9 µL/min/mg; logD (physchem [3]; pH 7.4, LogD7.4): 2.54
O=C(NC[C@@H](O)CN1CCC(Oc2ccc(Cl)c(Cl)c2)CC1)c1cc(=O)[nH]c2ccccc12	–	0.0183	microsomal CLint (in vitro [2]; liver microsomes): < 3 µL/min/mg; solubility thermodynamic (physchem [5]): 15.8 µM (≈ 7.75 µg/mL); logD (physchem [3]; pH 7.4, LogD7.4): 3.48
COc1ccnc(CCc2nc3c(C)ccnc3[nH]2)c1	–	0.197	microsomal CLint (in vitro [2]; microsomes): < 3 µL/min/mg; logD (physchem [3]; pH 7.4, LogD7.4): 2.1
CC(C)Oc1cc(-n2cnc3ccc(N[C@@H](C)c4ccc(F)cn4)nc32)n[nH]1	–	0.0581	microsomal CLint (in vitro [2]; microsomes): > 150 µL/min/mg
O=C(NS(=O)(=O)c1ccccc1Cl)N1CCC(N2CCC(Oc3ccc(Cl)c(Cl)c3)CC2)CC1	–	0.0307	microsomal CLint (in vitro [2]; liver microsomes): < 3 µL/min/mg
Cc1cc(Nc2cncc(N[C@@H](C)c3ncc(F)cn3)n2)n[nH]1	–	0.0854	microsomal CLint (in vitro [2]; liver microsomes): 15.8 µL/min/mg
CCc1nc2c(N)nc3ccccc3c2n1CC(C)C	–	0.117	microsomal CLint (in vitro [2]; liver microsomes): < 3 µL/min/mg
